# Legend:
# [1] = Fluorescence spectroscopy in dichloromethane; assay type: physicochemical
# Protocol: Fluorescence Spectroscopy:
# The fluorescence spectra of HPPH 2, purpurin-imide 4 and their corresponding carotene conjugates 3 and 6 were measured in dichloromethane. In the case of HPPH and its carotenoid analog, excitation at 660 nm gave strong emission at 670 nm. Similarly, purpurin imide and its carotenoid analog on excitation at 705 nm produced emission at 715 nm. Due to their strong fluorescence, and higher uptake in tumors, these compounds show great potential for use as diagnostic agents for malignant and non-malignant tumors.
# RIF tumor = assay: In vivo photosensitizing activity (tumor response after laser illumination); parameters: species or system C3H mice
# Protocol: Preliminary In Vivo Activity:
# RIF rumors were implanted subcutaneously into the axilla of 5-7 week old female C3H mice. When tumors grew to about 5 mm diameter, mice were injected with photosensitizers at various doses. The mice (6 mice/group) were restrained in aluminum holders and each tumor illuminated with 135 J/cm^2 light from a laser tuned at the longest wavelength absorption maximum of the photosensitizers. The percentage of short-term control was recorded daily.
# *Six mice/group (RIF tumor). 1.0 μmol/kg, 705 nm, 135 J/cm^2 (24 h
# *Six mice/group (RIF tumor). 135 J/cm^2
# [2] = Partition Coefficient (log P); assay type: physicochemical
# [3] = Singlet oxygen production in oxygen saturated toluene, singlet oxygen phosphorescence at 1270 nm; assay type: physicochemical; conditions: for singlet oxygen production: phosphorescence at 1270 nm
# Protocol: The carboxylic acid functionality was first activated by preparing carbodiimide analog (in situ) before condensing with amino carotene. The structure of the conjugate was confirmed by NMR and mass spectrometry. The singlet oxygen production by HPPH and its carotene conjugate was measured in oxygen saturated toluene solutions by monitoring the singlet oxygen phosphorescence at 1270 nm. […] Thus, a complete photoprotection was achieved.
# [4] = tested on: radiation induced fibrosarcoma (RIF) tumor; assay: Tumor uptake by in vivo reflection spectroscopy; parameters: species or system C3H mice; conditions: 5 micro mole/Kg; tumor vs skin fold; 3 h and 24 h post injection
# Protocol: Determination of Tumor Uptake by In Vivo Reflection Spectroscopy:
# The tumor uptake of the parent photosensitizer 2 (HPPH), FIG. 1, and purpurin with a fused imide ring 4, FIG. 2, were compared to the corresponding carotene conjugate 3 and 6 by in vivo reflection spectroscopy.
# For these experiments, C3H mice with an axillary radiation induced fibrosarcoma (RIF) tumor were injected with the drug in an amount of 5 micro mole/Kg of body weight and the in vivo absorption specta were taken at various time intervals. FIGS. 3 and 4 respectively show the uptake of HPPH 2 and purpurin-imide 4 at 24 h post injection. FIGS. 5 and 6 show the uptake of the HPPH-carotene conjugate at 3 h and 24 h post injection.
smiles,measurement,setting,value
"CCCCCCCOC(C)c1c(C)c2cc3nc(c4c5[nH]c(cc6nc(cc1[nH]2)C(C)=C6CC)c(C)c5C(=O)N(CCCCCC)C4=O)[C@@H](CCC(=O)OC)[C@@H]3C (stereo partly shown) [Purpurin-imide (4), heptyl ether analog of N-hexyl purpurin imide]",fluorescence emission wavelength,[1]; excitation at 705 nm,715 nm
same,% TUMOR RESPONSE day 7,"RIF tumor; 1.0 μmol/kg, 705 nm, 24 between inj. & treatment, 135 J/cm^2, day 7, Table 2",100%
same,% TUMOR RESPONSE day 21,"RIF tumor; 1.0 μmol/kg, 705 nm, 24 between inj. & treatment, 135 J/cm^2, day 21, Table 2",100%
same,% TUMOR RESPONSE day 30,"RIF tumor; 1.0 μmol/kg, 705 nm, 24 between inj. & treatment, 135 J/cm^2, day 30, Table 2",100%
same,% TUMOR RESPONSE day 90,"RIF tumor; 1.0 μmol/kg, 705 nm, 24 between inj. & treatment, 135 J/cm^2, day 90, Table 2",83%
same,Tumor Response days 1-2,"RIF tumor; 1.0 μmol/kg, 705 nm, 135 J/cm^2, 24 h post injection, Table 1",100%
same,mice tumor free on day 90,"RIF tumor; 1.0 μmol/kg, 705 nm, 135 J/cm^2, day 90",5/6
same,in vivo activity among the compounds tested,RIF tumor; dose of 1.0 μmol/kg,most effective
CCCCCCCOC(C)c1c(C)c2cc3nc(c4c5[nH]c(cc6nc(cc1[nH]2)C(C)=C6CC)c(C)c5C(=O)N(CCCCCC)C4=O)[C@@H](CCC(=O)Nc1ccc(/C=C/C(C)=C/C=C/C(C)=C/C=C/C=C(C)/C=C/C=C(C)/C=C/C2=C(C)CCCC2(C)C)cc1)[C@@H]3C (stereo partly shown) [Purpurin-imide-carotene (6)],fluorescence emission wavelength,[1]; excitation at 705 nm,715 nm
same,TUMOR RESPONSE (all days),"RIF tumor; 1.0 μmol/kg, 705 nm, 24 between inj. & treatment, 135 J/cm^2, Table 2",NO RESPONSE
CCCCCCN1C(=O)c2c3nc(cc4[nH]c(cc5nc(cc6[nH]c2c(c6C)C1=O)C(CC)=C5C)c(C(C)OC)c4C)[C@@H](C)[C@@H]3CCC(=O)OC (stereo partly shown) [Methyl Hexyl],logP,[2],7.72
"CCCCCCOC(C)c1c(C)c2cc3nc(c4c5[nH]c(cc6nc(cc1[nH]2)C(C)=C6CC)c(C)c5C(=O)C4)[C@@H](CCC(=O)O)[C@@H]3C (stereo partly shown) [HPPH (2), Hexyl ether analog of pyropheophorbide-a, reference compound]",fluorescence yield (Φf),[3],0.48
same,singlet oxygen yield (ΦΔ),[3]; oxygen saturated toluene,0.45
same,singlet oxygen production,[3]; oxygen saturated toluene,Ample production
same,fluorescence emission wavelength,[1]; excitation at 660 nm,670 nm
same,% TUMOR RESPONSE day 1-2,"RIF tumor; 0.47 μmol/kg, 665 nm, 24 between inj. & treatment, 135 J/cm^2, day 1-2, Table 2",100%
same,% TUMOR RESPONSE day 7,"RIF tumor; 0.47 μmol/kg, 665 nm, 24 between inj. & treatment, 135 J/cm^2, day 7, Table 2",100%
same,% TUMOR RESPONSE day 30,"RIF tumor; 0.47 μmol/kg, 665 nm, 24 between inj. & treatment, 135 J/cm^2, day 30, Table 2",50%
same,% TUMOR RESPONSE day 90,"RIF tumor; 0.47 μmol/kg, 665 nm, 24 between inj. & treatment, 135 J/cm^2, day 90, Table 2",50%
same,% TUMOR RESPONSE day 21,"RIF tumor; 0.47 umol/kg, 504 h",80%
CCCCCCOC(C)c1c(C)c2cc3nc(c4c5[nH]c(cc6nc(cc1[nH]2)C(C)=C6CC)c(C)c5C(=O)C4)[C@@H](CCC(=O)Nc1ccc(/C=C/C(C)=C/C=C/C(C)=C/C=C/C=C(C)/C=C/C=C(C)/C=C/C2=C(C)CCCC2(C)C)cc1)[C@@H]3C (stereo partly shown) [HPPH-carotene (3)],singlet oxygen production,[3]; oxygen saturated toluene,did not produce singlet oxygen
same,tumor uptake compared to parent compound,[4],significant uptake of the drug in the tumor vs the skin fold
same,fluorescence emission wavelength,[1]; excitation at 660 nm,670 nm
same,TUMOR RESPONSE (all days),"RIF tumor; 0.47 μmol/kg, 665 nm, 24 between inj. & treatment, 135 J/cm^2, Table 2",NO RESPONSE
CCCN1C(=O)c2c3nc(cc4[nH]c(cc5nc(cc6[nH]c2c(c6C)C1=O)C(CC)=C5C)c(C(C)OC)c4C)[C@@H](C)[C@@H]3CCC(=O)OC (stereo partly shown) [Methyl Propyl],logP,[2],6.22
CCCCCCOC(C)c1c(C)c2cc3nc(c4c5[nH]c(cc6nc(cc1[nH]2)C(C)=C6CC)c(C)c5C(=O)N(CCC)C4=O)[C@@H](CCC(=O)OC)[C@@H]3C (stereo partly shown) [Hexyl Propyl],logP,[2],8.72
same,Tumor Response day 7,"RIF tumor; 0.5 μmol, 705 nm, 135 J/cm^2, 24 h post injection, day 7, Table 1",66%
same,Tumor Response day 14,"RIF tumor; 0.5 μmol, 705 nm, 135 J/cm^2, 24 h post injection, day 14, Table 1",33%
same,Tumor Response day 21,"RIF tumor; 0.5 μmol, 705 nm, 135 J/cm^2, 24 h post injection, day 21, Table 1",17%
same,Tumor Response day 30,"RIF tumor; 0.5 μmol, 705 nm, 135 J/cm^2, 24 h post injection, day 30, Table 1",17%
same,Tumor Response day 90,"RIF tumor; 0.5 μmol, 705 nm, 135 J/cm^2, 24 h post injection, day 90, Table 1",17%
same,Tumor Response days 1-2,"RIF tumor; 0.5 μmol, 705 nm, 135 J/cm^2, 24 h post injection, Table 1",100%
CCCOC(C)c1c(C)c2cc3nc(c4c5[nH]c(cc6nc(cc1[nH]2)C(C)=C6CC)c(C)c5C(=O)N(CCC)C4=O)[C@@H](CCC(=O)OC)[C@@H]3C (stereo partly shown) [Propyl Propyl],logP,[2],7.22
CCCCCCN1C(=O)c2c3nc(cc4[nH]c(cc5nc(cc6[nH]c2c(c6C)C1=O)C(CC)=C5C)c(C(C)OCCC)c4C)[C@@H](C)[C@@H]3CCC(=O)OC (stereo partly shown) [Propyl Hexyl],logP,[2],8.72

# Reference: US6103751A, “Carotene analogs of porphyrins, chlorins and bacteriochlorins as therapeutic and diagnostic agents” (Health Research, Inc., priority 1998, dated 2000)
